Series [1] relates to Hep G2 (ATCC HB-8065) cells. Kind of series: Cytotoxicity, MTT assay. Type of series: cell-based. Conditions: Homo sapiens, HepG2, 24 h, Hep G2; MTT, 24 hours incubation; read-out: IC50. The procedure:
(§1) Before removing the frozen cell stocks from liquid nitrogen, culture medium was pre-warmed to 37° C. The frozen tube was then removed from liquid nitrogen and placed into a 37° C. water bath and shaken gently to thaw the cell stock as quickly as possible. A small portion of the pre-warmed culture medium was added to the cell solution. The cell suspension was then centrifuged at 1000 r/min for 3 minutes. The supernatant was discarded and the cells were resuspended in fresh culture medium.
(§2) NIH 3T3 (ATCC CRL-1658) and Hep G2 (ATCC HB-8065) cells were cultured with DMEM+10% FBS in 100 mm dishes. Cells were lifted for subculture or testing when confluence reached ˜60% by treating with 1× trypsin (incubated for 3 min at 37° C.). J774 (ATCC TIB-67) cells were cultured with DMEM+10% FBS in 100 mm dishes. Cells were lifted for subculture or testing when confluence reached ˜80% using a cell scraper. RAW264.7 (ATCC TIB-71) cells were cultured with DMEM+10% heat-inactivated FBS+1% pen/strep in T75 flasks. Cells were lifted for subculture or testing when confluence reached ˜80% using a cell scraper.
(§3) • 1. Cells were lifted and resuspended in culture medium. The number of cells in the cell suspension was determined using an auto-cell counter: 10 μL of the cell suspension was mixed with 10 μL 1× trypan blue (filtered with 0.2 μm PES filter) and the mixture was loaded onto a cell counting slide. Based on the concentration of viable cells, the cell suspension was further diluted to achieve the desired density. • 2. Cells were seeded in 96 well plates by adding 100 μL final cell suspension column-by-column using a multichannel pipette (5000 cells/well for NIH 3T3, 10000 cells/well for Hep G2, J774 and RAW264.7). The outer wells were block with PBS to reduce the effects of evaporation. One column was filled with only culture medium as a blank. Cells were incubated overnight before adding the test articles. • 3. Test articles were dissolved in 1×PBS (or DMSO) to obtain stocks solution. Stock solutions were pre-warmed before use. […] Serial dilutions (2-fold) of the 10× solutions were made in sterile culture tubes by diluting in 1×PBS (8 dilutions to yield 9 test concentrations). 900 μL of culture media was added to each tube to obtain final drug solution containing 10% PBS (or less than 1% DMSO) for each experimental group. • 4. The original culture medium was gently removed from the 96-well plates using a pipette. 100 μL of the test article solutions prepared in Step 3 were added to rows 2-7 of each column to obtain six replicates for each concentration. Plates were then incubated for 24 hours. • 5. MTT solutions were prepared by dissolving commercial MTT powder in 1×PBS to a concentration of 5 mg/mL. After passing through a 0.22 μm PES filter, the MTT solution was divided into 1 mL portions in sterile centrifuge tubes and stored at −20° C. • 6. MTT stock solutions were removed from the freezer to thaw at room temperature. Before adding MTT solutions, cell cultures were visually inspected and imaged using a microscope (to use as a comparison with MTT results). 10 μL of the 5 mg/mL MTT solution was added to each well and the plate was incubated for 4 hours. • 7. After 4 h incubation, the culture medium/MT solution was removed gently using a pipette. 100 μL of DMSO was added to each well using a multichannel pipette. The 96-well plates were analyzed in a plate reader using the following method: shake for 5 minutes, wait for 30 seconds, and measure absorbance at 570 nm. • 8. Data processing: The average of background Abg was calculated from the blank column. All other data was first treated by subtracting Abg. The average A. and standard deviation Se of each experimental group and the average Ac and standard deviation Sc for control group (with pure culture medium incubation) were then calculated. The cell viability was determined as Ae/Ac×100% and corresponding error as Se/Ae×100%. Significant outliers in any experimental or control group were removed. […]

A short description of series [2]: Solubility in aqueous media. The note with it: reason why efficacy could not be detected. Type of series: physicochemical.
Series [3] deals with A. baumannii 1674627 (MDR). The experiment in a line: MIC against resistant strains, Tables 5a-5d. Type of series: cell-based. The note with it: Acinetobacter baumannii, n = 3. The procedure: (§4) Compounds described herein were evaluated for growth inhibition against a variety of bacterial species, including strains that have developed resistance to common antibacterial treatments, according to the procedure described herein, or by analogous procedures known to those skilled in the art. Resistant bacterial strains used for compound testing include methicillin-resistant S. aureus (MRSA), vancomycin resistant Enterococci (VRE) and various multi-drug resistant (MDR) strains commonly associated with hospital-acquired (nosocomial) infections, including, but not limited to A. baumannii, K. pnuemoniae, and E. cloacae.

Series [4] concerns A. baumannii CDC0290 (MDR). The experiment in a line: MIC against resistant strains, Tables 5a-5d. Format: cell-based. The note with it: Acinetobacter baumannii, n = 3. The procedure:
as §4

The subject of series [5] is E. cloacae 1744299 (ESBL). Kind of series: MIC against resistant strains, Tables 5a-5d. Format: cell-based. The note with it: Enterobacter cloacae, n = 3. The procedure:
as §4

Series [6] deals with E. coli ATCC25922 (WT). Kind of series: MIC against resistant strains, Tables 5a-5d. Type of series: cell-based. The note with it: Escherichia coli, n = 3. The procedure: as §4
The test system of series [7] is E. faecium 1674620 (VRE). Kind of series: MIC against resistant strains, Tables 5a-5d. Format: cell-based. The note with it: Enterococcus faecium, n = 3. The procedure: as §4
The subject of series [8] is K. pneumoniae ATCC BAA-2473 (MDR). The experiment in a line: MIC against resistant strains, Tables 5a-5d. Type of series: cell-based. Conditions: Klebsiella pneumoniae, ATCCBAA2473, n = 3. The procedure:
as §4

For series [9], the system named is K. pneumoniae CDC0010 (MDR). Kind of series: MIC against resistant strains, Tables 5a-5d. Format: cell-based. Conditions: Klebsiella pneumoniae, n = 3. The procedure: as §4
Series [10] has as its system P. aeruginosa 1674623 (MDR). The experiment in a line: MIC against resistant strains, Tables 5a-5d. Type of series: cell-based. The note with it: Pseudomonas aeruginosa, n = 3. The procedure: as §4
Series [11] deals with P. aeruginosa CDC0248 (MDR). The experiment in a line: MIC against resistant strains, Tables 5a-5d. Type of series: cell-based. Conditions: Pseudomonas aeruginosa, n = 3. The procedure: as §4
The subject of series [12] is S. aureus ATCC 33591 (MRSA). Kind of series: MIC against resistant strains, Tables 5a-5d. The note with it: Staphylococcus aureus, n = 3. Format: cell-based. The procedure:
as §4

Series [13] deals with S. aureus ATCC BAA-1717 (MRSA). The experiment in a line: MIC against resistant strains, Tables 5a-5d. Format: cell-based. Conditions: Staphylococcus aureus, n = 3. The procedure:
as §4

Series [14] has as its system J774 (ATCC TIB-67) cells. The experiment in a line: Cytotoxicity, MTT assay. The note with it: for IC50: MTT, 24 hours incubation. Format: cell-based. The procedure: as §1, §2, §3
The subject of series [15] is NIH 3T3 (ATCC CRL-1658) cells. Kind of series: Cytotoxicity, MTT assay. Type of series: cell-based. Conditions: NIH 3T3; for IC50: MTT, 24 hours incubation. The procedure: as §1, §2, §3
For series [16], the system named is Hep G2 cells. The experiment in a line: Cytotoxicity tested by Eurofins Pharma Discovery Services. Type of series: cell-based. The note with it: for IC50: Hep G2, data provided by Eurofins.
For series [17], the system named is primary human hepatocytes. Described as above. The note with it: for IC50: data provided by Eurofins. Format: cell-based.
Series [18] deals with HRPTEpiC. Described as above. The note with it: data provided by Eurofins. Format: cell-based.
For series [19], the system named is K. aerogenes (ATCC 13048). Kind of series: MIC broth microdilution method, Table 3.
The test system of series [20] is S. epidermidis (ATCC 14990). The experiment in a line: MIC broth microdilution method, Table 3.
Series [21] deals with E. coli K12 (ATCC 47076). The experiment in a line: MIC broth microdilution method, Table 3.
Series [22] deals with RAW264.7 (ATCC TIB-71) cells. The experiment in a line: Cytotoxicity, MTT assay. Type of series: cell-based, murine. Conditions: RAW 264.7. The procedure:
as §1, §2
• 1. Cells were lifted and resuspended in culture medium. The number of cells in the cell suspension was determined using an auto-cell counter: 10 μL of the cell suspension was mixed with 10 μL 1× trypan blue (filtered with 0.2 μm PES filter) and the mixture was loaded onto a cell counting slide. Based on the concentration of viable cells, the cell suspension was further diluted to achieve the desired density. • 2. […] The 96-well plates were analyzed in a plate reader using the following method: shake for 5 minutes, wait for 30 seconds, and measure absorbance at 570 nm. • 8. Data processing: The average of background Abg was calculated from the blank column. […] The average A. and standard deviation Se of each experimental group and the average Ac and standard deviation Sc for control group (with pure culture medium incubation) were then calculated. The cell viability was determined as Ae/Ac×100% and corresponding error as Se/Ae×100%. […]

[23] abbreviates: at the concentration given as IC50 bound.

Read-outs that look alike come from different tables or passages of the source. Bounds are passed on as bounds.

For the compound `CC(C)(C)c1cc[n+](CCCCCCOc2cc(/C=C/c3cc(OCCCCCC[n+]4ccc(C(C)(C)C)cc4)cc(OCCCCCC[n+]4ccc(C(C)(C)C)cc4)c3)cc(OCCCCCC[n+]3ccc(C(C)(C)C)cc3)c2)cc1.[I-].[I-].[I-].[I-]` [Formula D], the IC50 in series [1] was 20.7 µg/mL. Moreover, the solubility result in series [2] was “low solubility”.

For the compound `CCCCCC[N+](C)(C)CCCCOc1cc(/C=C/c2ccc(/C=C/c3cc(OCCCC[N+](C)(C)CCCCCC)cc(OCCCC[N+](C)(C)CCCCCC)c3)cc2)cc(OCCCC[N+](C)(C)CCCCCC)c1.[I-].[I-].[I-].[I-]` [Formula T], the MIC was determined as 2 µg/mL in series [3]; 4 µg/mL in [4]; 2 µg/mL in series [5]; 2 µg/mL in series [6]; 0.25 µg/mL in series [7]; 4 µg/mL in [8]. Moreover, the MIC in series [9] is 4 µg/mL; in [10], 16 µg/mL; in series [11] it was 32 µg/mL; in series [12] it was 0.5 µg/mL; in series [13] it was 1 µg/mL; in series [19] (Klebsiella aerogenes, ATCC13048), 8 µg/mL. In addition, the MIC in series [20] (Staphylococcus epidermidis, ATCC14990) amounted to 1 µg/mL; in [21] (Escherichia coli, ATCC47076) it was 4 µg/mL. Besides, the IC50 in series [1] was found to be 15.3 µg/mL; in [14] (Mus musculus, read-out: IC50) it was 4.6 µg/mL; in series [15] (Mus musculus, NIH3T3, read-out: IC50), 12.4 µg/mL; in [16] (Homo sapiens, HepG2, read-out: IC50) it was 11.6 µg/mL; in series [17] (Hepatocyte, read-out: IC50), 31.8 µg/mL; in series [18] (read-out: IC50), 2.8 µg/mL.

Regarding Colistin [reference compound], the IC50 in series [14] was over 128 µg/mL; in [15], over 128 µg/mL; in [22] (MTT, 24 hours incubation), over 20 µg/mL; in [16], over 324 µg/mL; in series [17], over 324 µg/mL; in series [18], 215 µg/mL. Moreover, the “cell viability at the highest or lowest test concentration” value in [14] (setting [23]) is “(115%)”; in series [15] (setting [23]), “(104%)”; in [22] (setting [23]) it was “(109%)”; in series [16] (Hep G2, Eurofins, at the concentration given as IC50 bound), “(100%)”; in [17] (Eurofins, at the concentration given as IC50 bound) it was “(101%)”. The MIC was 2 µg/mL in [19] (K. aerogenes (−), LB medium, less than 10% relative growth); over 64 µg/mL in series [20] (S. epidermidis (+), BHI medium, less than 10% relative growth); 1 µg/mL in [21] (E. coli K12 (−), LB medium, less than 10% relative growth).

The values above are taken from US11713318B2, “Short conjugated oligoelectrolytes and uses thereof” (The Regents Of The University Of California, priority 2018, dated 2023).
